Assay results reported in ChEMBL document CHEMBL4261594, “Unexpected AChE inhibitory activity of (2E)α,β-unsaturated fatty acids” (Bioorg Med Chem Lett, 2018).

How the values were obtained:
Acetylcholinesterase [1] = molecular target: T1, Acetylcholinesterase (Electrophorus electricus, UniProt O42275); experiment: Inhibition of electric eel AChE using acetylthiocholine iodide as substrate preincubated for 20 mins followed by substrate addition and measured at 1 min intervals for 30 mins by Ellman's method
T1 sequence (O42275 whole entry): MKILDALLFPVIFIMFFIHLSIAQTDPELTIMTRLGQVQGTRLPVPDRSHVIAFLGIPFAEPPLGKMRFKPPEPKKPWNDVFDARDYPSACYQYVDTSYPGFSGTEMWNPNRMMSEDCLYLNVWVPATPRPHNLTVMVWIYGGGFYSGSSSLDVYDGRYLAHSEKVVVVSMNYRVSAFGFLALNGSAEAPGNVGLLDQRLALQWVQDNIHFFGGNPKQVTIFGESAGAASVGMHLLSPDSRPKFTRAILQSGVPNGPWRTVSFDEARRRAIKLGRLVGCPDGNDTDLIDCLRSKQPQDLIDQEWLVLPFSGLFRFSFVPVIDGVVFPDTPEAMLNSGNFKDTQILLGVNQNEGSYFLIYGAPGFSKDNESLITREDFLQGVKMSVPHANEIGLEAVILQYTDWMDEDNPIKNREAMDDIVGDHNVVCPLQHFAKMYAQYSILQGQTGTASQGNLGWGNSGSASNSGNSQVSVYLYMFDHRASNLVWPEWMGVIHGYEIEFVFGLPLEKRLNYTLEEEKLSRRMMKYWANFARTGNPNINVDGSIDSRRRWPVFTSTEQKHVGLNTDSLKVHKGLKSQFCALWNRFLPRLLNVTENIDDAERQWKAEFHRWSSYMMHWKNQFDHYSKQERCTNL

Acetylcholinesterase [2] = molecular target: T1, Acetylcholinesterase; experiment: Mixed type inhibition of electric eel AChE using acetylthiocholine iodide as substrate preincubated for 20 mins followed by substrate addition and measured at 1 min intervals for 30 mins by Dixon plot analysis
Acetylcholinesterase [3] = molecular target: T1, Acetylcholinesterase; experiment: Mixed type inhibition of electric eel AChE using acetylthiocholine iodide as substrate preincubated for 20 mins followed by substrate addition and measured at 1 min intervals for 30 mins by Cornish-Bowden plot analysis

| SMILES | IC50 (Acetylcholinesterase [1]; read-out: IC50) [µM] | Ki (Acetylcholinesterase [2]) [µM] | Ki (Acetylcholinesterase [3]) [µM] | IC50 (Acetylcholinesterase [1]) |
| --- | --- | --- | --- | --- |
| CCCCCCCCCCCCC/C=C/C(=O)O | 7.9 |  |  |  |
| CCCCCCCCCCCCCCC/C=C/C(=O)O | 4.3 | 3.21 | 5.51 |  |
| CCCCCCCCCCCCCCCC(=O)O [PALMITIC ACID] | 10.1 |  |  |  |
| CCCCCCCCCCCCCCCCCC(=O)O [STEARIC ACID] | 7.5 | 4.4 | 3.62 |  |
| CCCCCCCCCCCCCCCCCCCC(=O)O [ARACHIDIC ACID] | 12.8 |  |  |  |
| CCCCCCCCCCCCCCCCC/C=C/C(=O)O | 5 | 1.51 | 7.15 |  |
| CCCCCCCCCCCCCCCCCCCCCC(=O)O [BEHENIC ACID] |  |  |  | Nd(Insoluble) |
| CCCCCCCCCCCCCCCCCCC/C=C/C(=O)O | 11.7 |  |  |  |
